Results as given in PubChem BioAssay AID651837 (Sanford-Burnham Center for Chemical Genomics, 2012).
Active and inactive are the calls of the source.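 Rule for the calls: active = compounds whose fitted half-inhibition dose is 9.7 micromolar or lower; inactive = the rest.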

Tested on: Sufu-KO-LIGHT mouse cells, Gli-luciferase reporter luminescence
Test: antagonism of Gli-driven luciferase signal in Sufu-null cells – Sufu-KO-LIGHT mouse cells, luminescence, set 2, SAR follow-up (AID 651837)

Row | Structure (SMILES) | IC50
1 | O=C(Nc1cc(N2CCCCC2)ncn1)c1ccco1 | > 9.7 µM (inactive)
2 | CC(C)CNc1cc(NC(=O)c2ccccc2)ncn1 | > 9.7 µM (inactive)
3 | CCC(C)Nc1cc(NC(=O)c2ccccc2)ncn1 (stereo not drawn) | > 9.7 µM (inactive)
4 | CC(C)Nc1cc(NC(=O)c2ccccc2)ncn1 | > 9.7 µM (inactive)
5 | O=C(Nc1cc(N2CCSCC2)ncn1)c1ccccc1 | > 9.7 µM (inactive)
6 | COc1cccc(C(=O)Nc2cc(N3CCCCC3)ncn2)c1 | > 9.7 µM (inactive)
7 | CC(C)(C)OC(=O)N1CCN(c2cc(NC(=O)c3ccccc3)ncn2)CC1 | > 9.7 µM (inactive)
8 | O=C(Nc1cc(N2CCCCCC2)ncn1)c1ccccc1 | 0.035 µM
9 | CC1CCCCN1c1cc(NC(=O)c2ccccc2)ncn1 (stereo not drawn) | > 9.7 µM (inactive)
10 | CC1CCN(c2cc(NC(=O)c3ccccc3)ncn2)CC1 | 0.024 µM
11 | O=C(Nc1cc(N2CCOCC2)ncn1)c1ccccc1 | > 9.7 µM (inactive)
12 | N#Cc1cccc(C(=O)Nc2cc(N3CCCCC3)ncn2)c1 | > 9.7 µM (inactive)
13 | CCCCN(C)c1cc(NC(=O)c2ccccc2)ncn1 | > 9.7 µM (inactive)
14 | O=C(Nc1cc(N2CCCCC2)ncn1)c1ccccc1Cl | > 9.7 µM (inactive)
15 | O=C(Nc1cc(N2CCCCC2)ncn1)c1ccc(C(F)(F)F)cc1 | > 9.7 µM (inactive)
16 | CN1CCN(c2cc(NC(=O)c3ccccc3)ncn2)CC1 | > 9.7 µM (inactive)
17 | CC(C)(C)Nc1cc(NC(=O)c2ccccc2)ncn1 | > 9.7 µM (inactive)
18 | CCCCNc1cc(NC(=O)c2ccccc2)ncn1 | > 9.7 µM (inactive)
19 | O=C(Nc1cc(NCC2CCCO2)ncn1)c1ccccc1 (stereo not drawn) | > 9.7 µM (inactive)
20 | O=C(Nc1cc(N2CCNCC2)ncn1)c1ccccc1 | > 9.7 µM (inactive)
21 | COc1ccccc1C(=O)Nc1cc(N2CCCCC2)ncn1 | > 9.7 µM (inactive)
22 | CCOc1ccc(-c2nc(CSCC(=O)NC3CC3)c(C)o2)cc1 | 0.027 µM
23 | CCOc1ccc(S(=O)(=O)NCc2ccncc2)cc1NC(=O)c1ccccc1 | 3.4 µM
24 | O=C(Nc1cc(N2CCCCC2)ncn1)c1ccccc1C(F)(F)F | > 9.7 µM (inactive)
25 | Cc1ccc(C(=O)Nc2cc(N3CCCCC3)ncn2)cc1 | > 9.7 µM (inactive)
26 | N#Cc1ccc(C(=O)Nc2cc(N3CCCCC3)ncn2)cc1 | > 9.7 µM (inactive)
27 | O=C(Nc1cc(N2CCCCC2)ncn1)c1ccccc1 | 0.023 µM
28 | O=C(Nc1cc(N2CCCCC2)ncn1)c1ccc(Cl)cc1 | > 9.7 µM (inactive)
